Measurements taken from a melting point compilation (Tetko et al.; mined from patent text by program, amines drawn as free bases though some values may be those of a salt).

SMILES | melting point [°C]
CCCCCc1c(C(C)C)nc(C(C)C)c(CN(C)C)c1-c1ccc(F)cc1 | 69 to 71
COC(=O)C(C)OC(=O)c1cc(-n2c(=O)cc(C(F)(F)F)n(C)c2=O)c(F)cc1Cl (stereo unspecified) | 102 to 104
COC(=O)c1cc(OCCCOc2ccccc2-c2ccccc2)cc(OCCCOc2ccccc2-c2ccccc2)c1 | 77 to 79
CC(C)NC(=O)C(O)C(Cc1ccccc1)NC(=O)OC(C)(C)C (mixture of isomers) | 126 to 145
FC(F)(F)c1cccc2c1c(N1CCOCC1)nc1c(-c3nc(C4CC4)no3)ncn12 | 197 to 199
FC(F)(F)c1cccc(Oc2ccnc(-c3ccc(Cl)cc3)n2)c1 | 92
O=C(CCCCCNC(=O)c1ccco1)NO | 114 to 115
CCOC(=O)Cc1nc2cc(Cl)ccc2o1 | 90 to 91
CCOCc1nc2c(N)nc3ccccc3c2n1CC1(NC(C)=O)CCCCC1 | 178 to 180
CCOC(=O)Cc1c(C)n(Cc2ccc(Cl)cc2)c2cccc(OCc3csc(-c4ccc(Cl)cc4)n3)c12 | 133 to 135
Cc1cn(C(C(=O)N(C)C)C(C)C)nc1-c1ccccc1 (stereo unspecified) | 66.5 to 68.5
CCCCCCCCC(SCCCCCC)C(=O)Nc1c(SC)cc(SC)c2ncccc12 (stereo unspecified) | 91 to 93
Nc1ncnc2c1ncn2C1OC(CS)C(O)C1O (stereo unspecified) | 108 to 109
Clc1ccc(-c2nc3n(c2Br)CCCC3)c(Cl)c1 | 112 to 113
Cc1ccc(N2CCN(Cc3n[nH]c4ccccc34)CC2)nc1 | 151 to 153
CC(C)C1CCN(Cc2ccc(COc3cccc4c3CN(C3CCC(=O)NC3=O)C4=O)cc2)CC1 (stereo unspecified) | 124 to 126
COc1ccc(C)c2c1C(C=O)C1CCCCC21 (stereo unspecified) | 92 to 93
CCOC(=O)Nc1ccc(C2=NN(c3nnc(C)s3)[C@H](C)Cc3cc4c(cc32)OCO4)cc1C | 241 to 244
C=CN1Cc2ccccc2-c2ccc(Cl)cc2C1=O | 170 to 172
O=C(Nc1ccc(S(=O)(=O)c2ccccn2)cc1)C(O)(C(F)(F)F)C(F)(F)F | 199 to 200
CCOCc1nc2c(N)nc3cc(OCCN)ccc3c2n1CC(C)(C)O | 163 to 165
CSC(CC(CCCl)C(=O)c1ccccc1)C(N)C(N)=O (stereo unspecified) | 174
Nc1nc(=O)c2ncn(C3OC4COP(=O)(O)OC4C3O)c2[nH]1 (stereo unspecified) | 91.6 to 93.7

SMILES | melting point [°C]
COc1cc(C(=O)Cc2ccccc2)cc(Cl)c1Cl | 126 to 129
CCCCN(CC)C(=O)c1cnc2c3c(ccc2c1)C(=O)C(C(=O)O)C=N3 (stereo unspecified) | 236 to 237
COc1cc(NC(=O)CCCCCN2CCCN(C)CC2)c2nccc(C)c2c1 | 74 to 77
C=C(C)Cc1c(C)c(NC=O)c(C)c(CC(=C)C)c1O | 169 to 170
COc1cccc(N2CCN(CCC(=O)O)CC2)c1 | 180 to 183
CCCCCCOC(C)c1ccc(-c2ccc(OCc3ccccc3)cc2)cc1 (single isomer, unassigned; (+)) | 61 to 63
Cc1cccc(-c2n[nH]cc2-c2ccc(F)c(-c3ccc(O)cc3)c2)n1 | 72 to 74
COc1cccc2oc(C(=O)c3cccc(C(F)(F)F)c3)c(C)c12 | 91 to 92
COCC(C)n1nc(-c2c(-c3ccccc3)nn3ccc(OC)cc23)ccc1=O (stereo unspecified) | 138 to 139
CCN(C=CC(=O)c1cccnc1)CC | 193 to 195
CC1(C)Oc2ccc(C#N)cc2C(n2ccc(O)cc2=O)C1O (stereo unspecified) | 248 to 250
CC1(C)CCC23CCC4(C)C(CCC5C6(C)CCC(O)C(C)(C)C6CCC54C)C2C1OC3 (stereo unspecified) | 268 to 269
N#CNC(=NC1CCN(CCCc2ccccc2)CC1)N1CCc2ccccc2C1 | 122 to 124
Fc1ccc(-c2c[nH]cc2-c2ccc(F)cc2)cc1 | 142
CC(N1C(=O)C(=O)N(c2ccc(C(C)(C)C)cc2)C1=S)C(C)(C)C (stereo unspecified) | 209 to 210
CC(C)NC(=O)C(C)(C)C | 106 to 108
O=C(Oc1cc([N+](=O)[O-])cc([N+](=O)[O-])c1O)c1ccccc1 | 150 to 152
Cc1ccc(S(=O)(=O)NC(=O)N2C(=O)C(C)N2C(c2ccccc2)c2ccccc2)cc1 (stereo unspecified) | 155 to 159
Cc1cc(S(F)(F)(F)(F)F)c(S(C)(=O)=O)cc1C(=O)NC(=N)N | 254 to 256
CC(C)Cc1cc(OCc2ccccc2)c2c(c1)OC(C)(C)CC2=O | 77.5 to 78
O=C(Nc1ccc(N2CCN(C(=O)C(O)c3ccccc3Cl)CC2)nc1)Nc1ccccc1F (stereo unspecified) | 127 to 128
COC(=O)c1cnc(OC)c([N+](=O)[O-])c1 | 118 to 119
Nc1ccn(C2CN3CCC2CC3)n1 (stereo unspecified) | 112 to 115

SMILES | melting point [°C]
COc1cc(OC)nc(NC(=O)NS(=O)(=O)c2ccccc2C(=O)O)n1 | 155 to 157
Cc1cccc(NC(=O)NC2N=C(c3ccccc3F)c3ccccc3N(Cc3ncccc3C(N)=O)C2=O)c1 (racemic) | 203
CC(=O)NC[C@H]1CN(c2ccc(N3CCC(Cc4noc(C)n4)CC3)c(F)c2)C(=O)O1 | 136 to 138
O=C(Nc1cc2c(cn1)[nH]c1ccccc12)c1cccs1 | 109 to 125
CCn1cnc(=O)c(-c2cccc(C(F)(F)F)c2)c1 | 172 to 173
COc1ccc2c(c1)OC=C(C(=O)N1CCN(C(c3ccc(F)cc3)c3ccc(F)cc3)CC1)O2 | 65
Nc1ncc(CCCCc2ccc(Cl)cc2)c(N)n1 | 159 to 162
Cn1cc(CS(C)(=O)=O)c(=O)c2ccc(C(F)(F)F)cc21 | 240 to 242
N=C(N)c1ccc(C(=O)N[C@@H](Cc2cc(I)c(O)c(I)c2)C(=O)N2CCC(OCC(=O)O)CC2)cc1 | 220 to 221
CN1OCC(=O)N(C(c2ccccc2)c2ccccc2)C1=S | 152 to 154
CCCCNc1cc(CN(Cc2ccccc2)C(=O)OCC)cc(S(N)(=O)=O)c1Oc1ccccc1 | 82 to 83
CCOC(=O)c1cc(C=O)c2ccccn2c1=O | 179 to 181
CCOC(=O)C(=O)Nc1cc(OC)c(OC)cc1[N+](=O)[O-] | 163
O=C(CNC(=O)c1ccc(F)cc1)c1ccsc1 | 140 to 141
Oc1ccc(Cn2c(S)nc3ccccc32)cc1 | 216 to 220
CCN1CC2CCCC2C1CNC(=O)c1cc(S(N)(=O)=O)ccc1OC (stereo unspecified) | 232
O=S1(=O)c2ccccc2NC2CCCN21 (stereo unspecified) | 149 to 154
Cc1ccnc(-c2cccc(Br)n2)n1 | 127
Cn1cc(C2=C(c3cn(CCCSc4ncc[nH]4)c4ccccc34)C(=O)NC2=O)c2ccccc21 | 130 to 132
O=C(Nc1ccc(F)cc1)N(CCO)CCCCO | 62 to 64
Cc1nc(N2CCC[C@H]2CO)c2nc(-c3ccccc3)cc-2[nH]1 | 255 to 256

The next lines start with the values.

melting point [°C] | SMILES
118 to 119 | CCc1cc(O)nc(C)n1
185 | O=C1c2cccc([N+](=O)[O-])c2C2CC3(CCN12)SCCS3 (stereo unspecified)
151 to 154 | COc1cc(OC)cc(-c2ncn(-c3cc(OC)c(OC)c(OC)c3)c2-c2ccc(N(C)C)cc2)c1
173 to 175 | COc1ccccc1NC(=O)Nc1ccc(N2CCN(C(=O)Nc3ccc(OCCO)cc3Cl)CC2)c(Cl)c1
91 to 93 | CCOC(=O)N1CCc2cc(OC)c(OC)cc2CC1
194 | CCOC(=O)C1=C(COCc2nnc(N)s2)NC(C)=C(C(=O)OC)C1c1cccc(Cl)c1Cl (stereo unspecified)
145 to 147 | CN(C)c1ncc(-c2cc(Cl)cc(Cl)c2Cl)c(N)n1
228 to 230 | N#Cc1cnc2cc(-c3csc(CN4CCOCC4)c3)ccc2c1Nc1ccc(Cc2ccccc2)cc1
131 to 137 | CN1C(=O)N(c2ccccc2F)C(=O)C1=CC1CCCCC1
150 | CCOC(=O)c1ccc(NCc2cc3c(cc2O)CCCO3)cc1
39 to 41.5 | C=CCN(CC)C(=O)n1cnc(S(=O)(=O)CC)n1
110 to 114 | CCSc1nc(NC(C)=O)ccc1F
151 to 152 | CC(=O)NCc1ccc(CN2CCN(c3ncc([N+](=O)[O-])s3)CC2)cc1
136 to 138 | Cc1cc(-c2ccc(Cl)c(Cl)c2)n(-c2ccc(S(N)(=O)=O)cc2)c1
194 to 196 | CCCNc1cc(Nc2ccc(OC)cc2)ncn1
186 to 188 | O=C(Nc1ccccc1)Nc1ccccn1
106 to 109 | CCCCn1nnnc1-c1ccc(C(=O)NCC2CCCC2(C)C)cc1 (stereo unspecified)

melting point [°C] | SMILES
104 to 105 | O=C(O)CCC(=NOCc1ccc(OCc2csc(-c3ccccc3)n2)cc1)c1ccccc1
98 to 101 | C=CCONC(=O)c1nc(-c2ccc(Cl)c(OC)c2F)nc(N)c1C=C
160 to 162 | CC(C)(ON=C(C(=O)O)c1ccco1)C(N)=O
139 | CCOc1ccc(-c2ccc(Br)cc2)cc1
76 to 79 | C=CCOc1ccccc1OCC(O)CNC(C)C (stereo unspecified)
191 to 193 | COC(=O)c1ccc(Cn2c(=O)c(C)c3sc(C(=O)NCc4ccc(F)cc4)cn3c2=O)cc1OC
107 to 108 | CC(C)(CCNS(=O)(=O)c1ccc(Cl)cc1)CC(=O)O
112 to 115 | ClCCC(=C(c1ccccc1)c1ccc(OCCN2CCCC2)cc1)c1ccccc1
219 to 220 | CC(O)Cc1cccc(Nc2nccc(-c3sc(N)nc3-c3ccccc3)n2)c1 (stereo unspecified)
118 to 120 | NC(=O)CCn1nccc1-c1ccc(Oc2ccc(F)cc2)cc1
49 to 50 | CNCCCCOc1ccc2c(ccn2-c2ccc(F)cc2)c1
189 to 190 | CCCCN1CCC(NC(=O)c2ccc(NCc3ccnc4ccccc34)cc2)CC1
261 to 264 | O=c1[nH]c(=O)n(CCCN2CCN(C(c3ccccc3)c3ccccc3)CC2)c2ccccc12
242 to 243 | O=c1oc(-c2ccccc2)cc(O)c1Sc1cccc2ccccc12
102 to 106 | CS(=O)(=O)Nc1ccc(NC(=O)CN2CCC(Cc3ccccc3)CC2)cc1
241 to 243 | O=C(O)c1cnc2cc(C3CCCCC3)ccc2c1O
124 to 126 | Cc1cc(N)c(C)c2c1OC(C)(C)C2=O
